The source made the active and inactive calls. The calls are words filed in the database; no cut-off is given here.
Legend:
[1] = molecular target: T1, Heat shock protein HSP 90-alpha (Homo sapiens, UniProt P07900); assay: Inhibition of recombinant Homo sapiens (human) Hsp90 alpha ATPase activity assessed as inorganic phosphate release at 10 uM by malachite green colorimetric method
[2] = molecular target: T1, Heat shock protein HSP 90-alpha; assay: Inhibition of recombinant Homo sapiens (human) Hsp90 alpha ATPase activity assessed as inorganic phosphate release by malachite green colorimetric method

inhibition [1]	IC50 [2] [µM]	SMILES
19%		CSc1ccc(NC(=O)c2ccc[n+](CC(=O)Nc3ccc(Cl)cc3)c2)cc1
24%		O=C(C[n+]1cccc(C(=O)Nc2ccc(Cl)cc2)c1)Nc1ccc([N+](=O)[O-])cc1
14%		CSc1ccc(NC(=O)C[n+]2cccc(C(=O)Nc3ccccc3)c2)cc1
46%	16.4	NC(=O)c1ccc[n+](CC(=O)NCCc2ccccc2)c1
8%		Cc1ccccc1NC(=O)C[n+]1cccc(C(N)=O)c1
23%		C=CCNC(=O)c1ccc[n+](CC(=O)Nc2ccc(C)cc2)c1
16%		Cc1ccc(NC(=O)C[n+]2cccc(C(=O)Nc3cccc(C)c3)c2)cc1
43%	13.3	COc1ccc(NC(=O)C[n+]2ccccc2)cc1
inactive		C=CCNC(=O)C[n+]1cccc(C(N)=O)c1
13%		CCOC(=O)C[n+]1cccc(C(N)=O)c1
34%	13.2	Cc1cccc(NC(=O)C[n+]2cccc(C(N)=O)c2)c1
9%		NC(=O)c1ccc[n+](CCc2ccccc2)c1
20%		C=CCNC(=O)c1ccc[n+](CC(=O)Nc2ccc([N+](=O)[O-])cc2)c1
20%		NC(=O)c1ccc[n+](CC(=O)NCc2ccccc2)c1
20%		COc1ccc(NC(=O)C[n+]2cccc(C(N)=O)c2)cc1
11%		O=C(C[n+]1cccc(C(=O)Nc2ccccc2)c1)Nc1ccc([N+](=O)[O-])cc1
3%		O=C(C[n+]1ccccc1)Nc1ccc(Cl)cc1
23%		COc1ccc(NC(=O)c2ccc[n+](CC(=O)Nc3ccc(S(N)(=O)=O)cc3)c2)cc1
47%	26.6	NS(=O)(=O)c1ccc(NC(=O)C[n+]2cccc(C(=O)Nc3ccccc3)c2)cc1

inhibition [1]	IC50 [2] [µM]	SMILES
inactive		COc1ccc(NC(=O)C[n+]2cccc(C(=O)Nc3ccc([N+](=O)[O-])cc3)c2)cc1
48%	17.3	Cc1ccc(NC(=O)C[n+]2cccc(C(=O)Nc3ccc(Cl)cc3)c2)cc1
7%		NS(=O)(=O)c1ccc(NC(=O)C[n+]2ccccc2)cc1
29%		COc1ccc(NC(=O)C[n+]2cccc(C(=O)Nc3ccc(SC)cc3)c2)cc1
46%	12.7	CC(=O)NS(=O)(=O)c1ccc(NC(=O)C[n+]2ccccc2)cc1
34%	14.9	O=C(C[n+]1ccccc1)Nc1ccc([N+](=O)[O-])cc1
12%		Cc1cccc(NC(=O)C[n+]2ccccc2)c1
24%		Cc1cccc(NC(=O)c2ccc[n+](CC(=O)Nc3ccc(Cl)cc3)c2)c1
3%		COc1ccc(NC(=O)C[n+]2cccc(C(=O)Nc3ccc(OC)cc3)c2)cc1
8%		NS(=O)(=O)c1ccc(NC(=O)C[n+]2cccc(C(=O)Nc3ccc([N+](=O)[O-])cc3)c2)cc1
3%		NS(=O)(=O)c1ccc(NC(=O)C[n+]2cccc(C(=O)Nc3ccc(Cl)cc3)c2)cc1
59%	7.4	Cc1ccc(NC(=O)C[n+]2cccc(C(=O)Nc3ccccc3)c2)cc1
36%	49.6	O=C(C[n+]1ccccc1)NCc1ccccc1
18%		CSc1ccc(NC(=O)c2ccc[n+](CC(=O)Nc3ccc(C)cc3)c2)cc1
62%	7.6	NC(=O)c1ccc[n+](CC(=O)Nc2ccc([N+](=O)[O-])cc2)c1
40%	12.5	Cc1ncc(C[n+]2csc(CCO)c2C)c(N)n1 [THIAMINE ION]
inactive		Cc1ccc(NC(=O)C[n+]2ccccc2)cc1
10%		COc1ccc(NC(=O)c2ccc[n+](CC(=O)Nc3ccc(Cl)cc3)c2)cc1
21%		Cc1ccc(NC(=O)C[n+]2cccc(C(=O)Nc3ccc([N+](=O)[O-])cc3)c2)cc1

inhibition [1]	IC50 [2] [µM]	SMILES
29%		N=C(N)NS(=O)(=O)c1ccc(NC(=O)C[n+]2cccc(C(N)=O)c2)cc1
1.6%		C=CCNC(=O)c1ccc[n+](CC(=O)Nc2ccc(Cl)cc2)c1
32%	48.5	C=CCNC(=O)c1ccc[n+](CC(=O)Nc2ccc(OC)cc2)c1
4%		COc1ccc(NC(=O)C[n+]2cccc(C(=O)Nc3ccccc3)c2)cc1
3%		CSc1ccc(NC(=O)c2ccc[n+](CC(=O)Nc3ccc([N+](=O)[O-])cc3)c2)cc1
17%		O=C(C[n+]1cccc(C(=O)Nc2ccccc2)c1)Nc1ccc(Cl)cc1
inactive		COc1ccc(NC(=O)c2ccc[n+](CC(=O)Nc3ccc([N+](=O)[O-])cc3)c2)cc1
36%	12.7	CC(=O)NS(=O)(=O)c1ccc(NC(=O)C[n+]2cccc(C(N)=O)c2)cc1
2%		COc1ccc(NC(=O)C[n+]2cccc(C(=O)Nc3ccc(Cl)cc3)c2)cc1
24%		NC(=O)c1ccc[n+](CC(=O)Nc2ccc(Cl)cc2)c1
20%		N=C(N)NS(=O)(=O)c1ccc(NC(=O)C[n+]2ccccc2)cc1
inactive		O=C(C[n+]1cccc(C(=O)Nc2ccc(Cl)cc2)c1)Nc1ccc(Cl)cc1
32%	12	NC(=O)c1ccc[n+](CC(=O)Nc2ccc(S(N)(=O)=O)cc2)c1
34%	42.2	Cc1ccc(NC(=O)C[n+]2cccc(C(N)=O)c2)cc1
24%		CSc1ccc(NC(=O)C[n+]2cccc(C(=O)Nc3ccc(Cl)cc3)c2)cc1
10%		NC(=O)c1ccc[n+](Cc2ccccc2)c1
37%	13.3	NC(=O)c1ccc[n+](CC(=O)Nc2ccccc2)c1
20%		COc1ccc(NC(=O)c2ccc[n+](CC(=O)Nc3ccc(C)cc3)c2)cc1
3%		O=C(C[n+]1ccccc1)Nc1ccccc1

Reference: ChEMBL document CHEMBL3046576, “Rational exploration of new pyridinium-based HSP90 inhibitors tailored to thiamine structure” (Med Chem Res, 2012)
